The source of these data is patent US20240124470A1, “FIVE-MEMBERED RING DERIVATIVE AND MEDICAL USE THEREOF” (SICHUAN HAISCO PHARMACEUTICAL CO., LTD., priority 2020, published 2024).

By EC50 is commonly meant the midpoint of the concentration-response curve.

Counter-ions that a name gives are not always drawn. Like-named read-outs stand apart in the source and are kept apart here.

The target of this assay is T1, GLP-1 receptor (Homo sapiens, UniProt P43220).
T1 construct: expressed in transfected cells
T1 sequence (P43220 24-463): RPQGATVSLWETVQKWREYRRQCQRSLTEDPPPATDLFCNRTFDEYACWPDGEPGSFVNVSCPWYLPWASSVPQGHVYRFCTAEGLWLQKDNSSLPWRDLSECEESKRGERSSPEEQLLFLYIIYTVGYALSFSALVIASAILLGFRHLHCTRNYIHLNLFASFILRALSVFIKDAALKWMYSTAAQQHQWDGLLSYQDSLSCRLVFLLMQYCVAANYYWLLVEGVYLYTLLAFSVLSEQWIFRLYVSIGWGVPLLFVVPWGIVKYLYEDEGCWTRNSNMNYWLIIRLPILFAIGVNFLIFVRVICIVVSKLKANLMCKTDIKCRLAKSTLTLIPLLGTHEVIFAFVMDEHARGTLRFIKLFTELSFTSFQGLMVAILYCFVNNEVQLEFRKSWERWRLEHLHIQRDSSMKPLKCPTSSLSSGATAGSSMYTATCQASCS
Description: HEK293/CRE-luc/GLP-1R cell luciferase reporter test (agonistic effect on GLP-1 receptor). Type of assay: cell-based. The following applies: HEK293/CRE-luc/GLP-1R cells. As to the method:
1. HEK293/CRE-luc/GLP-1β cell viability
Cell: HEK293/CRE-luc/GLP-1R
Cell culture medium: DMEM+10% FBS+400 μg/ml G418+100 μg/ml Hygromycin B
Frozen stock solution: 90% FBS, 10% (V/V) DMSO
Detection buffer: DMEM+1% FBS
Cells were cultured in DMEM medium+10% FBS+400 μg/ml G418+100 μg/ml Hygromycin B in a CO2 incubator at 37° C., and passaged once every 3-4 days.
Cell plating: Trypsinization adjusted the cell density to 1.67×10^5 cells/mL; 60 μL of cells per well (10000 cells/well) was inoculated in a 384-well plate containing compounds; A NC well (negative control) and a background well (no cells) were set. Incubation was performed for about 18+2 h in the incubator.
Compounds were serially diluted with the detection buffer, and the detection concentration was 0.01 nM-1000 nM.
The cell culture plate was removed and all supernatant was aspirated from the cells. The cells were washed gently 2 times with 1×PBS.
The diluted compound was added to a 384-well plate (10 μL/well), and three replicate wells were set for each concentration. 10 μL of the detection buffer was added to the NC well, sealed and incubated at 37° C. for 6 hours.
The plate was removed, the cells were allowed to equilibrate to room temperature (at least 15 min), and then all supernatant was aspirated from the cells.
Steady-Glo® Reagent was added to the sample well at 10 μL/well and incubated at room temperature for 5 min to lyse the cells.
The test results were read with a BMG microplate reader.
The mean background value was calculated.
The induction factor (Fold of induction, FI)=(induction well value−background value)/(negative control well value −background value) was calculated.
The EC50 value of the sample was calculated using Graphpad Prim 8.0 software using four-parameter fitting analysis.
Mean and standard error (Mean±SEM) were calculated for all results and Graphpad Prism software was used for statistical analysis. Specific data were presented in the form of graphs. P<0.05 was considered to be statistically different.
(In a reporter assay the amount or activity of a reporter protein is the signal.)

Setting [1] is: 6 hours incubation, class symbols, read-out: EC50.
The mark [2] stands for this setting: bound stated, read-out: EC50 value.

With `CC1(c2ccc(Cl)cc2F)Oc2cccc(-c3ccc(Cc4nc5sc(C(=O)O)cc5n4C[C@@H]4CCO4)cc3)c2O1` (stereo partly drawn) [Compound 11, 2-(4-(2-(4-chloro-2-fluorophenyl)-2-methylbenzo[d][1,3]dioxol-4-yl)benzyl)-1-(((S)-oxetan-2-yl)methyl)-1H-thieno[2,3-d]imidazole-5-carboxylic acid], the EC50 is less than 10 nM under setting [1] and less than 10 nM under setting [2].

As to `C[C@H]1CN(c2cccc(OCc3ccc(C#N)cc3F)n2)CCN1Cc1nc2sc(C(=O)O)cc2n1C[C@@H]1CCO1` [Trifluoroacetate salt of compound 3, 2-(((S)-4-(6-((4-cyano-2-fluorobenzyl)oxy)pyridin-2-yl)-2-methylpiperazin-1-yl)methyl)-1-(((S)-oxetan-2-yl)methyl)-1H-thieno[2,3-d]imidazole-5-carboxylic acid], the half-maximal effective concentration (EC50) runs as follows: under setting [1], less than 10 nM; under setting [2], less than 10 nM.

Take `Cc1cc(Cc2nc3sc(C(=O)O)cc3n2C[C@@H]2CCO2)c(F)cc1-c1cccc(OCc2ccc(C#N)cc2F)n1` [Compound 8, (S)-2-(4-(6-((4-cyano-2-fluorobenzyl)oxy)pyridin-2-yl)-2-fluoro-5-methylbenzyl)-1-(oxetan-2-ylmethyl)-1H-thieno[2,3-d]imidazole-5-carboxylic acid]: the EC50 runs as follows: under setting [1], less than 10 nM; under setting [2], less than 10 nM.

With `N#Cc1ccc(COc2nc(C3CCN(Cc4nc5sc(C(=O)O)cc5n4C[C@@H]4CCO4)CC3)ccc2F)c(F)c1` [Compound 17, (S)-2-((4-(6-((4-cyano-2-fluorobenzyl)oxy)-5-fluoropyridin-2-yl)piperidin-1-yl)methyl)-1-(oxetan-2-ylmethyl)-1H-thieno[2,3-d]imidazole-5-carboxylic acid], the EC50 under setting [1] is less than 10 nM and the EC50 under setting [2] was less than 10 nM.

With `N#Cc1ccc(COc2cccc(-c3ccc(Cc4nc5sc(C(=O)O)cc5n4C[C@@H]4CCO4)cc3)n2)c(F)c1` [Compound 7, (S)-2-(4-(6-((4-cyano-2-fluorobenzyl)oxy)pyridin-2-yl)benzyl)-1-(oxetan-2-ylmethyl)-1H-thieno[2,3-d]imidazole-5-carboxylic acid], the EC50 by setting is: under setting [1], less than 10 nM; under setting [2], less than 10 nM.

On to `N#Cc1ccc(COc2cccc(C3=CCN(Cc4nc5sc(C(=O)O)cc5n4C[C@@H]4CCO4)CC3)n2)c(F)c1` [Trifluoroacetate salt of compound 2, (S)-2-((6-((4-cyano-2-fluorobenzyl)oxy)-3′,6′-dihydro-[2,4′-bipyridin]-1′(2′H)-yl)methyl)-1-(oxetan-2-ylmethyl)-1H-thieno[2,3-d]imidazole-5-carboxylic acid], for which the EC50 reads like this: under setting [1], less than 10 nM; under setting [2], less than 10 nM.

On to `CC1(c2ccc(Cl)cn2)Oc2cccc(C3CCN(Cc4nc5sc(C(=O)O)cc5n4C[C@@H]4CCO4)CC3)c2O1` (stereo partly drawn) [Compound 24, 2-((4-(2-(5-chloropyridin-2-yl)-2-methylbenzo[d][1,3]dioxol-4-yl)piperidin-1-yl)methyl)-1-(((S)-oxetan-2-yl)methyl)-1H-thieno[2,3-d]imidazole-5-carboxylic acid], for which the EC50 was less than 10 nM under setting [1] and less than 10 nM under setting [2].

Consider `N#Cc1ccc(COc2ncccc2C2CCN(Cc3nc4sc(C(=O)O)cc4n3C[C@@H]3CCO3)CC2)c(F)c1` [Compound 15, (S)-2-((4-(2-((4-cyano-2-fluorobenzyl)oxy)pyridin-3-yl)piperidin-1-yl)methyl)-1-(oxetan-2-ylmethyl)-1H-thieno[2,3-d]imidazole-5-carboxylic acid], for which the EC50 runs as follows: under setting [1], less than 10 nM; under setting [2], less than 10 nM.

For the molecule `N#Cc1ccc(COc2cccc(-c3ccc(Cc4nc5sc(C(=O)O)cc5n4C[C@@H]4CCO4)c(F)c3)n2)cc1` [Compound 20, (S)-2-(4-(6-((4-cyanobenzyl)oxy)pyridin-2-yl)-2-fluorobenzyl)-1-(oxetan-2-ylmethyl)-1H-thieno[2,3-d]imidazole-5-carboxylic acid], the EC50 is less than 10 nM under setting [1] and less than 10 nM under setting [2].
